Laboratory results reported in PMC4839570, “Novel Anthra[1,2-c][1,2,5]Thiadiazole-6,11-Diones as Promising Anticancer Lead Compounds: Biological Evaluation, Characterization & Molecular Targets Determination” (PLoS ONE, 2016).
Where two headings read alike, the source gives them in different places.

How the values were obtained:
[1] = system: MKN1; experiment: JFCR-39 cytotoxicity screen; assay type: cell-based
[2] = system: HCT-15; experiment: JFCR-39 cytotoxicity screen; assay type: cell-based
[3] = system: MKN45; experiment: JFCR-39 cytotoxicity screen; assay type: cell-based
[4] = system: SR; experiment: NCI-60 cytotoxicity screen; assay type: cell-based; conditions: Homo sapiens, Fig 7, read-out: mean log10 of the GI50 values (converted)
[5] = system: NCI-H460; experiment: NCI-60 cytotoxicity screen; assay type: cell-based
[6] = system: SNB-19; experiment: NCI-60 cytotoxicity screen; assay type: cell-based
[7] = system: A498; experiment: NCI-60 cytotoxicity screen; assay type: cell-based
[8] = system: MKN74; experiment: JFCR-39 cytotoxicity screen; assay type: cell-based
[9] = system: NCI-H522; experiment: JFCR-39 cytotoxicity screen; assay type: cell-based
[10] = system: MCF-7; experiment: JFCR-39 cytotoxicity screen; assay type: cell-based
[11] = system: MCF7; experiment: NCI-60 cytotoxicity screen; assay type: cell-based
[12] = system: HS 578T; experiment: NCI-60 cytotoxicity screen; assay type: cell-based
[13] = system: 786-0; experiment: NCI-60 cytotoxicity screen; assay type: cell-based
[14] = system: DMS273; experiment: JFCR-39 cytotoxicity screen; assay type: cell-based
[15] = system: SF-268; experiment: NCI-60 cytotoxicity screen; assay type: cell-based
[16] = system: RXF 393; experiment: NCI-60 cytotoxicity screen; assay type: cell-based
[17] = system: A549/ATCC; experiment: NCI-60 cytotoxicity screen; assay type: cell-based
[18] = system: SN12C; experiment: NCI-60 cytotoxicity screen; assay type: cell-based
[19] = system: MKN28; experiment: JFCR-39 cytotoxicity screen; assay type: cell-based
[20] = system: UO-31; experiment: NCI-60 cytotoxicity screen; assay type: cell-based
[21] = system: K-562; experiment: NCI-60 cytotoxicity screen; assay type: cell-based
[22] = system: OVCAR-3; conditions: five-dose
[23] = system: PC-3; experiment: JFCR-39 cytotoxicity screen; assay type: cell-based
[24] = system: A549; experiment: JFCR-39 cytotoxicity screen; assay type: cell-based
[25] = system: OVCAR-8; experiment: NCI-60 cytotoxicity screen; assay type: cell-based
[26] = system: DU-145; experiment: NCI-60 cytotoxicity screen; assay type: cell-based
[27] = system: MKN7; experiment: JFCR-39 cytotoxicity screen; assay type: cell-based
[28] = system: SNB-75; experiment: JFCR-39 cytotoxicity screen; assay type: cell-based
[29] = system: SF-268; experiment: JFCR-39 cytotoxicity screen; assay type: cell-based
[30] = system: EKVX; experiment: NCI-60 cytotoxicity screen; assay type: cell-based
[31] = system: HT29; experiment: NCI-60 cytotoxicity screen; assay type: cell-based
[32] = system: NCI-H23; experiment: NCI-60 cytotoxicity screen; assay type: cell-based
[33] = Homo sapiens, read-out: LC50 (the source's name)
[34] = Homo sapiens, Fig 7, read-out: mean log10 of the GI50 values (converted)
[35] = Homo sapiens, five-dose, read-out: GI50
[36] = Homo sapiens, five-dose, read-out: LC50 (the source's name)

Compound: O=C1c2ccccc2C(=O)c2c1ccc1nsnc21 [NSC745885, anthra[1,2-c][1,2,5]thiadiazole-6,11-dione]
- TGI [1]: 1.5 µM
- GI50 ([1]; Homo sapiens, MKN-1): 470 nM
- CC50 ([1]; Homo sapiens, MKN-1, read-out: LC50 (the source's name)): 4.3 µM
- TGI [2]: 3.4 µM
- GI50 ([2]; Homo sapiens): 1800 nM
- CC50 [2, 33]: 6.3 µM
- TGI [3]: 9.8 µM
- GI50 ([3]; Homo sapiens, MKN-45): 3.1 µM
- CC50 ([3]; Homo sapiens, MKN-45, read-out: LC50 (the source's name)): 39 µM
- GI50 [4]: 6.92 µM
- GI50 ([5]; Homo sapiens, NCI-460, five-dose, read-out: GI50): 3270 nM
- CC50 ([5]; Homo sapiens, NCI-460, five-dose, read-out: LC50 (the source's name)): 47.3 µM
- GI50 ([5]; Homo sapiens, NCI-H460, Fig 7, read-out: mean log10 of the GI50 values (converted)): 2450 nM
- TGI ([5]; NCI-460, five-dose): 14.3 µM
- GI50 [6, 34]: 2040 nM
- GI50 [6, 35]: 2280 nM
- CC50 [6, 36]: 26 µM
- TGI ([6]; five-dose): 5.82 µM
- GI50 [7, 34]: 35.5 µM
- GI50 [7, 35]: 12.4 µM
- CC50 [7, 36]: 52 µM
- TGI ([7]; five-dose): 25.4 µM
- TGI [8]: 4.7 µM
- GI50 ([8]; Homo sapiens, MKN-74): 1800 nM
- CC50 ([8]; Homo sapiens, MKN-74, read-out: LC50 (the source's name)): > 100 µM
- TGI [9]: 3.0 µM
- GI50 ([9]; Homo sapiens): 1300 nM
- CC50 [9, 33]: 6.7 µM
- TGI [10]: 3.9 µM
- GI50 ([10]; Homo sapiens, MCF7): 1900 nM
- CC50 ([10]; Homo sapiens, MCF7, read-out: LC50 (the source's name)): 8.1 µM
- GI50 [11, 34]: 1380 nM
- GI50 [11, 35]: 1530 nM
- CC50 [11, 36]: 7.29 µM
- TGI ([11]; five-dose): 3.34 µM
- TGI ([12]; HS 578T, five-dose): 5.02 µM
- GI50 ([12]; Homo sapiens, Hs-578T, HS578T, Fig 7, read-out: mean log10 of the GI50 values (converted)): 2630 nM
- GI50 ([12]; Homo sapiens, HS 578T, five-dose, read-out: GI50): 1410 nM
- CC50 ([12]; Homo sapiens, HS 578T, five-dose, read-out: LC50 (the source's name)): 56 µM
- TGI ([13]; 786–0, five-dose): 19.3 µM
- GI50 ([13]; Homo sapiens, 786-0, Fig 7, read-out: mean log10 of the GI50 values (converted)): 4.9 µM
- GI50 ([13]; Homo sapiens, 786–0, five-dose, read-out: GI50): 6.17 µM
- CC50 ([13]; Homo sapiens, 786–0, five-dose, read-out: LC50 (the source's name)): 50.4 µM
- TGI [14]: 3.8 µM
- GI50 ([14]; Homo sapiens, DMS-273): 2000 nM
- CC50 ([14]; Homo sapiens, DMS-273, read-out: LC50 (the source's name)): 7 µM
- GI50 [15, 34]: 2750 nM
- GI50 [15, 35]: 2170 nM
- CC50 [15, 36]: 27.7 µM
- TGI ([15]; five-dose): 5.77 µM
- GI50 ([16]; Homo sapiens, RXF393, Fig 7, read-out: mean log10 of the GI50 values (converted)): 1740 nM
- GI50 [16, 35]: 1750 nM
- CC50 [16, 36]: 14.6 µM
- TGI ([16]; five-dose): 4.40 µM
- GI50 [17, 34]: 5.75 µM
- GI50 [17, 35]: 14.7 µM
- CC50 [17, 36]: 91 µM
- TGI ([17]; five-dose): 36.6 µM
- GI50 [18, 34]: 1780 nM
- GI50 [18, 35]: 1330 nM
- CC50 [18, 36]: 7.56 µM
- TGI ([18]; five-dose): 3.17 µM
- TGI [19]: 4.4 µM
- GI50 ([19]; Homo sapiens, MKN-28): 1800 nM
- CC50 ([19]; Homo sapiens, MKN-28, read-out: LC50 (the source's name)): 13 µM
- GI50 [20, 34]: 1780 nM
- GI50 [20, 35]: 1620 nM
- CC50 [20, 36]: 6.01 µM
- TGI ([20]; five-dose): 3.12 µM
- GI50 ([21]; Homo sapiens, K562, Fig 7, read-out: mean log10 of the GI50 values (converted)): 2510 nM
- GI50 ([21]; Homo sapiens, K562, five-dose, read-out: GI50): 1920 nM
- CC50 ([21]; Homo sapiens, K562, five-dose, read-out: LC50 (the source's name)): 41.2 µM
- TGI ([21]; five-dose): 15.9 µM
- TGI [22]: 2.46 µM
- TGI [23]: 2.8 µM
- GI50 ([23]; Homo sapiens): 1300 nM
- CC50 [23, 33]: 6 µM
- TGI [24]: 41.0 µM
- GI50 ([24]; Homo sapiens): 19 µM
- CC50 [24, 33]: 89 µM
- GI50 [25, 34]: 1200 nM
- GI50 [25, 35]: 1660 nM
- CC50 [25, 36]: 59.8 µM
- TGI ([25]; five-dose): 4.68 µM
- GI50 [26, 34]: 3550 nM
- GI50 [26, 35]: 1670 nM
- CC50 [26, 36]: 6.27 µM
- TGI ([26]; five-dose): 3.24 µM
- TGI [27]: 3.7 µM
- GI50 ([27]; Homo sapiens, MKN-7): 1100 nM
- CC50 ([27]; Homo sapiens, MKN-7, read-out: LC50 (the source's name)): 17 µM
- TGI [28]: 3.9 µM
- GI50 ([28]; Homo sapiens): 2200 nM
- CC50 [28, 33]: 7 µM
- TGI [29]: 3.8 µM
- GI50 ([29]; Homo sapiens): 2000 nM
- CC50 [29, 33]: 7.1 µM
- GI50 [30, 34]: 1860 nM
- GI50 [30, 35]: 1550 nM
- CC50 [30, 36]: 7.66 µM
- TGI ([30]; five-dose): 3.45 µM
- GI50 ([31]; Homo sapiens, HT-29, Fig 7, read-out: mean log10 of the GI50 values (converted)): 6.03 µM
- GI50 ([31]; Homo sapiens, HT-29, five-dose, read-out: GI50): 13.4 µM
- CC50 ([31]; Homo sapiens, HT-29, five-dose, read-out: LC50 (the source's name)): > 100 µM
- TGI ([31]; five-dose): 50.4 µM
- GI50 [32, 34]: 1070 nM
- GI50 [32, 35]: 1440 nM
- CC50 [32, 36]: > 100 µM
- TGI ([32]; five-dose): 6.04 µM
